The text below walks through data of ChEMBL document CHEMBL1139617, “Total synthesis and bioactivity of unique flavone desmosdumotin B and its analogs” (2005).

For the experiment, the system named is Raji. The experiment is described as follows: Percent viability of Raji cells at concentration of 1000 mol ratio / 20 ng/mL TPA. Format: functional, Homo sapiens.
As to `CC1=C(O)C(C)(C)c2oc(-c3ccccc3)cc(=O)c2C1=O` [DESMOTUMOTIN B], the Viability was 70%. For `COC1=C(C)C(O)=C(C(=O)/C=C/c2ccccc2)C(=O)C1(C)C` [DESMOSDUMOTIN C], the Viability amounted to 70%. Under `CC(=O)C1=C(O)C(C)(C)C(O)=C(C(C)=O)C1=O` stands 60%. With `CC1=C(O)C(C)(C)C2=C(C(=O)CC(c3ccccc3)O2)C1=O` (stereo unspecified) the figure was 70%; with `CC(=O)C1=C(O)C(C)=C(O)C(C)(C)C1=O`, 60%; with `COC1=C(C)C(=O)c2c(oc(-c3ccccc3)cc2=O)C1(C)C`, 70%. Under `CC(=O)C1=C(O)C(C)(C)C(=O)C(C)(C)C1=O` stands 60%; under `CC1(C)C(=O)C(C(=O)/C=C/c2ccccc2)=C(O)C(C)(C)C1=O`, 70%. Take `CC(=O)C1=C(O)C(C)(C)C(O)=CC1=O`: the Viability came to 60%. For the compound `CC(=O)c1c(O)cc(O)c(C(C)=O)c1O`, the Viability was found to be 60%. Under `CC1=C(O)C(C)(C)C(O)=C(C(=O)/C=C/c2ccccc2)C1O` (stereo unspecified) stands 70%.
